Seven compounds from paper PMC4691102, “Antioxidant and ACE Inhibitory Bioactive Peptides Purified from Egg Yolk Proteins” (International Journal of Molecular Sciences, 2015) can be followed below.

A short description of assay [1]: Hydroxyl radical scavenging activity (HRSA) assay. As to conditions: standard 0.2 mg/mL, 37 °C 1 h, pH 7.4, 532 nm, mean ± SD of three independent experiments. Here is the method: The HRSA assay was performed as described by Wu et al.. The reaction mixture consisted of 0.1 mL of 10 mM FeSO4, 0.1 mL of 10 mM EDTA, 0.5 mL of 10 mM α-deoxyribose, 0.9 mL sodium phosphate buffer pH 7.4, and 0.2 mL of peptides at different concentrations (0.5, 1, 5, 10 and 20 mg/mL). All reagents were then thoroughly mixed in a tube and 0.2 mL of 10 mM hydrogen peroxide was added. The reaction mixture was then incubated at 37 °C for 1 h. Following incubation, 1 mL of 2.8% TCA and 1 mL of 1.0% TBA were added to the test tubes, and the contents boiled for 15 min. After cooling at room temperature, the absorbance of the mixture was measured at 532 nm. Trolox and BHT (both used at concentration 0.2 mg/mL) were also tested as positive controls for comparison. The HRSA was evaluated as a percentage of α-deoxyribose oxidation inhibition by the hydroxyl radical and calculated as follows: HRSA (%)=AC−AS/AC×100 where AC is the absorbance for negative control using 500 μL deionized water instead of sample, AS is the absorbance of the sample or positive controls (trolox/BHT).

Assay [2] can be described thus: Lipid oxidation in linoleic acid model system, TBARS method. As to conditions: positive control 0.2 mg/mL; after four days incubation at 40 °C; 532 nm; mean of three independent experiments. On the procedure:
(§1) The inhibition of lipid peroxidation by the EYPH fractions was measured using linoleic acid oxidized as described below. The degree of oxidation was measured using (FTC) and (TBARS) methods. In order to prepare the reaction mixture, 50 mg of each sample was dissolved individually with 10 mL absolute ethanol, 0.13 mL linoleic acid, 4.87 mL distilled water and 10 mL 50 mM sodium phosphate buffer (pH 7). Samples were homogenized by a sonicator (Labsonic® M, B. Braun Biotech International, Melsungen, Germany). The tubes were then sealed tightly with silicone rubber caps and kept in the dark at 40 °C in an oven. […] A negative control was prepared in the same manner using distilled water in place of egg yolk hydrolysates. The commercial antioxidants, 0.2 mg/mL of BHT and trolox were also used as positive controls. […] The absorbance of the upper layer was measured at 532 nm using a spectrophotometer (Kontron Instrument UNIKON 860) Malonaldehyde standard curve was prepared using 1,1,3,3-tetramethoxypropane and TBARS were expressed as μg of malonaldehyde/mL. The percentage (%) of lipid oxidation inhibition was calculated according to the following formula: Lipid oxidation inhibition (%)=Absorbance of control − Absorbance of sample/Absorbance of control×100

A short description of assay [3]: Lipid oxidation in linoleic acid model system, ferric thiocyanate (FTC) method. The settings on record: positive control 0.2 mg/mL; after four days incubation at 40 °C; 500 nm; mean of three independent experiments. On the procedure:
as §1, with “[…] After exactly 3 min, the absorbance” for “The commercial antioxidants, 0.2 mg/mL”, “the resulting ferric thiocyanate solution was read at 500 nm using a spectrophotometer (Kontron Instrument UNIKON 860, Cambridge, UK).” for “BHT and trolox were also used as positive controls.”

Assay [4] can be described thus: Superoxide anion scavenging activity (pyrogallol autoxidation). The settings on record: standard 0.2 mg/mL, Tris-HCl pH 8.2, 25 °C, 320 nm, mean ± SD of three independent experiments. On the procedure: In this assay, the alkaline condition enhances the autoxidation of pyrogallol to produce a superoxide anion, which, in turn, accelerates the autoxidation process by autocatalysis. The autoxidation of a pyrogallol method described by Marklund and Marklund was applied to measure the superoxide anion scavenging power of egg yolk peptides. The reaction mixture consisted of 1.0 mL of peptides sample at different concentrations ([…], 5.0, 10 and 20 mg/mL) and 1.8 mL of 50 mM Tris-HCl buffer, previously adjusted to pH 8.2. The mixture was incubated at 25 °C for 20 min. Then, 40 μL of 45 mM pyrogallol (prepared previously in 10 mM HCl) was added. The absorbance of the reaction mixture was measured at 320 nm immediately after adding pyrogallol at 1 min intervals up to 4 min. Trolox and BHT (both used at a concentration of 0.2 mg/mL) were also tested as positive controls for comparison.

Assay [5] can be described thus: DPPH radical scavenging activity. As to conditions: for DPPH Scavenging activity: standard 0.2 mg/mL, 60 min, room temperature, dark, 517 nm, mean ± SD of three independent experiments; for Antioxidant activity (DPPH scavenging) of peptide compared with synthetic antioxidant: peptide 10 mg/mL versus 0.2 mg/mL BHT (Figure 7), abstract prints BHA. Here is the method: The method used was in accordance with Bersuder et al. using the synthetic free radical DPPH. Briefly, a volume of 500 μL of selected fractions at different concentrations (0.5, 1, 5, 10 and 20 mg/mL) was mixed with 500 μL of 99.5% ethanol and 125 μL of 0.02% w/v DPPH prepared previously in 99.5% ethanol. The mixture was shaken vigorously then kept at room temperature in the dark. After 60 min, the color reduction of the DPPH substrate was measured at an absorbance of 517 nm. Trolox and BHT (both used at concentration 0.2 mg/mL) were also tested as positive controls for comparison. The DPPH radical scavenging activity was calculated as follows: Radical scavenging activity (%)=AC−AS/AC×100 where AC is the absorbance for negative control using 500 μL deionized water instead of sample, AS is the absorbance of the sample or positive controls (trolox/BHT). A lower absorbance of the reaction mixture indicated a higher DPPH radical-scavenging activity.
A general note: DPPH is a stable violet radical that fades when it is reduced.

The target in assay [6] is angiotensin converting enzyme (ACE) (Homo sapiens, UniProt P12821). The experiment in a line: ACE inhibitory activity by HPLC (HHL substrate, hippuric acid at 228 nm). As to conditions: peptide 10 mg/mL versus captopril 0.5 mg/mL, Dunnett's test, p < 0.05, Figure 8.
angiotensin converting enzyme (ACE), sequence (P12821 30-1306, species assumed): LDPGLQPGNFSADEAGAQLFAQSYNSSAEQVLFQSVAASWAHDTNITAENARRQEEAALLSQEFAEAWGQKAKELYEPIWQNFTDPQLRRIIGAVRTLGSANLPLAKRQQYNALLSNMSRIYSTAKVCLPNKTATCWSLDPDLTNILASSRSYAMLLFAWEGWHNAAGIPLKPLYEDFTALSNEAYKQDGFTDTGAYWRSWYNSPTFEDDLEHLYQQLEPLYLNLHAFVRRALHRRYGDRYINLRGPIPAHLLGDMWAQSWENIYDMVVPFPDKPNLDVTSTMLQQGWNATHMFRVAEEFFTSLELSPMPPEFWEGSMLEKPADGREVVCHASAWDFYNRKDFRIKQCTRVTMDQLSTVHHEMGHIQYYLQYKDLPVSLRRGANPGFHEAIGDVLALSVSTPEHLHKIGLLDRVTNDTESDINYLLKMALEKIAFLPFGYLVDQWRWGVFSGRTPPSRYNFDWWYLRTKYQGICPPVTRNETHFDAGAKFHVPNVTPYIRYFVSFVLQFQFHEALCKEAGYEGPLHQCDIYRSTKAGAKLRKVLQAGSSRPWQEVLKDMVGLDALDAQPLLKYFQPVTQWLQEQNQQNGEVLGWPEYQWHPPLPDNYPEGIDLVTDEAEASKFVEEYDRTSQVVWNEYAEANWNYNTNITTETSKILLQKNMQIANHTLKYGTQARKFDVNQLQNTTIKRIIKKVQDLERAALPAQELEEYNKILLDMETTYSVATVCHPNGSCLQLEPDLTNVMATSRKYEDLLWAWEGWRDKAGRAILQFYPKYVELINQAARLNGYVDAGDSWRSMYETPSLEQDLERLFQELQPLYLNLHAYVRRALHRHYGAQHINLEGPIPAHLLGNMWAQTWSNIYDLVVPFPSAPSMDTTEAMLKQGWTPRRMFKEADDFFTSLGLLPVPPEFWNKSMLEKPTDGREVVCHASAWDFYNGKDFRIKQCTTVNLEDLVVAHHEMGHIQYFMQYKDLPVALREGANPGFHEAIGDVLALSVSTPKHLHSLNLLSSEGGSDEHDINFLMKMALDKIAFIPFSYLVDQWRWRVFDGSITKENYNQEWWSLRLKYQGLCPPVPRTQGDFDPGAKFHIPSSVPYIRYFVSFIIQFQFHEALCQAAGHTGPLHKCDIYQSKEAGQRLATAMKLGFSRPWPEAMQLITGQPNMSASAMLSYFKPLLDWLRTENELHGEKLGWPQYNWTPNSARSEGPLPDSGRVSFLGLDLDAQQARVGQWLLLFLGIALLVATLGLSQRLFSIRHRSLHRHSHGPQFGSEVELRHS
Protocol: The measurement of ACE inhibitory activity was conducted using HPLC in accordance with a modified method of Wu et al. [53]. All samples were prepared with 100 mM borate buffer, containing 300 mM NaCl at pH = 8.3. […] The peptide fractions and HHL were mixed and maintained at 37 °C for 10 min in 2 mL polyethylene microcentrifuge tubes. ACE was maintained at 37 °C for 10 min before the two solutions were combined. The combined mixture was incubated at 37 °C for 30 min with continuous agitation. In order to terminate the reaction, 85 μL of 1 M HCl was added. Samples were analyzed on a C18 column (3.0 mm × 150 mm, 5 μm, phenomenex) and hippuric acid (HA) and HHL were detected at 228 nm using HPLC system (Ultimate 3000 HPLC, Thermo Fisher Scientific Inc., Loughborough, UK). Data were analyzed using integration software (Chromeleon, Thermo Fisher Scientific Inc., Loughborough, UK).
Assay [7] can be described thus: Ferrous chelating activity assay (ferrozine). As to conditions: EDTA 0.2 mg/mL, 10 min room temperature, 563 nm, mean ± SD of three independent experiments. Here is the method:
The activity of the peptide to chelate ferrous Fe^2+ ions was measured according to the method of Ebrahimzadeh et al.. The reaction mixture contained 0.5 mL of isolated peptides at different concentrations (0.5, 1, 5, 10 and 20 mg/mL), 1.6 mL deionized water and 0.05 mL of 2 mM FeCl2. After 30 s, 0.1 mL of 5 mM ferrozine was added. After 10 min at room temperature, the absorbance of the Fe^2+-ferrozine complex was measured at 563 nm. EDTA (0.2 mg/mL) was also tested as a positive control for comparison. The activity of the peptide to chelate Fe^2+ was calculated as: Chelating ability (%) =AC−AS/AC×100 where AC is the absorbance of the control, using 0.5 mL deionized water instead of sample, AS is the absorbance of the sample or positive control EDTA.

On to `Cc1cc(C(C)(C)C)c(O)c(C(C)(C)C)c1` [BHT, butylated hydroxyltoluene], for which, in assay [1], the “Hydroxyl radical scavenging activity” value was 58.97% ± 1.02%. For the same compound, in assay [2], the “Lipid Oxidation (%), TBARS method” value was 26.1%. Moreover, the “Lipid Oxidation (%), FTC method” value in assay [3] worked out at 23.3%. The “Superoxide anion scavenging activity” value in assay [4] is recorded as 67.45% ± 1.67%. For the same compound, the “DPPH Scavenging activity” value is on record as 23.6% in assay [5] and 23.60% ± 1.66% in assay [5] (SD).
With WYGPD, the “Antioxidant activity (DPPH scavenging) of peptide compared with synthetic antioxidant” value in assay [5] is given as “not significantly different from the synthetic BHA antioxidant”.
For `Cc1c(C)c2c(c(C)c1O)CCC(C)(C(=O)O)O2` (centres unmarked) [Trolox, trolox], the “Hydroxyl radical scavenging activity” value in assay [1] is on record as 70.03% ± 3.48%. The “Lipid Oxidation (%), TBARS method” value in assay [2] is 28.7%. Also, in assay [3], the “Lipid Oxidation (%), FTC method” value is 32.2%. Also, the “Superoxide anion scavenging activity” value in assay [4] was 63.48% ± 1.63%. Further, the “DPPH Scavenging activity” value was 38.5% in assay [5] and 38.46% ± 1.43% in assay [5] (SD).
Turning to SDNRNQGY, the “ACE inhibitory activity of synthesized peptide compared with captopril” value in assay [6] was “not significantly different from that of the positive control captopril”.
For `O=C(O)CN(CCN(CC(=O)O)CC(=O)O)CC(=O)O` [EDTA], the “Fe2+ chelating activity” value in assay [7] is reported as 97.54% ± 1.79%.
In the case of YPSPV, in assay [6], the “ACE inhibitory activity of synthesized peptide compared with captopril” value was “higher ACE inhibitory activity compared with captopril”.
KLSDW: in assay [5], the “Antioxidant activity (DPPH scavenging) of peptide compared with synthetic antioxidant” value is on record as “not significantly different from the synthetic BHA antioxidant”.
